Source: PMC9019041, “Structural insights into the peptide selectivity and activation of human neuromedin U receptors” (Nature Communications, 2022)
Like-named read-outs stand apart in the source and are kept apart here. Where no end group is shown, it is not given here.

Experiments:
Type in all cases: cell-based
NMUR2 WT = biological target: T1, NMUR2 WT (Homo sapiens, UniProt Q9GZQ4); test: IP-One assay, NMUR2 WT; conditions: WT NMUR2, Supplementary Fig. 1; three independent experiments; read-out: pEC50 of NMU (converted)
T1 construct: The full-length human NMUR1 and NMUR2 were modified; expressed in transfected cells; host or cells: AD293 cells
T1 sequence (Q9GZQ4 whole entry): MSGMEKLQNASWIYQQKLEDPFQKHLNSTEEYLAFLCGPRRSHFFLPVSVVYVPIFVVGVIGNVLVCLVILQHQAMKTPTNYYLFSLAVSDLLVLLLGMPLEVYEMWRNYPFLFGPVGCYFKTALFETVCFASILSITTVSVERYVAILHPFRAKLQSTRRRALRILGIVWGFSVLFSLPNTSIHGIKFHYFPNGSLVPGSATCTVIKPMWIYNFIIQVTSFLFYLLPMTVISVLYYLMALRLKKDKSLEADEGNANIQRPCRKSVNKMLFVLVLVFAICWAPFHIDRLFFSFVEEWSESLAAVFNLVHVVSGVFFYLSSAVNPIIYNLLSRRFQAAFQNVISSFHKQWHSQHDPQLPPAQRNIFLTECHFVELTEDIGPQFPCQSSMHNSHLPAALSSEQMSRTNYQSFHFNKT
Protocol: (§1) IP-One production was measured using the IP-One HTRF kit (Cisbio)[62]. Briefly, AD293 cells (Agilent) were grown to a density of 400,000–500,000 cells per mL and then infected with separate plasmids at a suitable concentration. The culture was collected by centrifugation 24 h after incubation at 37 °C in 5% CO2 with a Stimulation Buffer. The cell suspension was then dispensed in a white 384-well plate at a volume of 7 μl per well before adding 7 μl of ligands. The mixture was incubated for 1 h at 37 °C. IP-One-d2 and anti-IP-One Cryptate dissolved in Lysis Buffer (3 μl each) were subsequently added and incubated for 15-30 min at room temperature before measurement. Intracellular IP-One measurement was carried with the IP-One HTRF kit and EnVision multi-plate reader (PerkinElmer) according to the manufacturer’s instructions. Data were normalized to the baseline response of the ligand.
(§2) The significance was determined with two-side, one-way ANOVA with Tukey’s test, and ^*P < 0.05 was considered statistically significant.

NMUR2 E127A = biological target: T2, NMUR2 E127A (Homo sapiens, UniProt Q9GZQ4, E127A); test: IP-One assay, NMUR2 E127A; conditions: mean ± S.E.M., three independent experiments (n=3), SEM, read-out: IP1 accumulation pEC50 ± S.E.M. (converted)
T2 construct: expressed in transfected cells; host or cells: AD293 cells
T2 sequence (Q9GZQ4 whole entry E127A): as the sequence (Q9GZQ4 whole entry) above, with E127A counted along it
Protocol: as §1, §2

NMUR1 F345A = biological target: T3, NMUR1 F345A (Homo sapiens, UniProt Q9HB89, F345A); test: IP-One assay, NMUR1 F345A; conditions: mean ± S.E.M., three independent experiments (n=3), SEM, read-out: IP1 accumulation pEC50 ± S.E.M. (converted)
T3 construct: The full-length human NMUR1 and NMUR2 were modified; expressed in transfected cells; host or cells: AD293 cells
T3 sequence (Q9HB89 whole entry F345A): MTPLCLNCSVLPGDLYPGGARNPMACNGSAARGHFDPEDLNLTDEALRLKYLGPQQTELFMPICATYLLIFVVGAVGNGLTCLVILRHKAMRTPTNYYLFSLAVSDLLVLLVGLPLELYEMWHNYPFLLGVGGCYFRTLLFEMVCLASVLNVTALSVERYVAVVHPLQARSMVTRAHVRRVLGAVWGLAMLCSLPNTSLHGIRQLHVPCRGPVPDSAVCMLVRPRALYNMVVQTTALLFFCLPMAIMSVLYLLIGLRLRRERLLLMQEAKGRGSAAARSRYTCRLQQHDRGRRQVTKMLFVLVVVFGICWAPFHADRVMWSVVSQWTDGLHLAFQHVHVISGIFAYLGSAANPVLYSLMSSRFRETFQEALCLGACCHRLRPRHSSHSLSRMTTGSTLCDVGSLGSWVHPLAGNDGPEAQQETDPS
Protocol: as §1, §2

NMUR2 N109A = biological target: T4, NMUR2 N109A (Homo sapiens, UniProt Q9GZQ4, N109A); test: IP-One assay, NMUR2 N109A; conditions: mean ± S.E.M., three independent experiments (n=3), SEM, read-out: IP1 accumulation pEC50 ± S.E.M. (converted)
T4 construct: expressed in transfected cells; host or cells: AD293 cells
T4 sequence (Q9GZQ4 whole entry N109A): as the sequence (Q9GZQ4 whole entry) above, with N109A counted along it
Protocol: as §1, §2

NMUR1 Q335A = biological target: T5, NMUR1 Q335A (Homo sapiens, UniProt Q9HB89, Q335A); test: IP-One assay, NMUR1 Q335A; conditions: mean ± S.E.M., three independent experiments (n=3), SEM, read-out: IP1 accumulation pEC50 ± S.E.M. (converted)
T5 construct: The full-length human NMUR1 and NMUR2 were modified; expressed in transfected cells; host or cells: AD293 cells
T5 sequence (Q9HB89 whole entry Q335A): as the sequence (Q9HB89 whole entry F345A) above, with Q335A, A345F counted along it
Protocol: as §1, §2

NMUR1 N124A = biological target: T6, NMUR1 N124A (Homo sapiens, UniProt Q9HB89, N124A); test: IP-One assay, NMUR1 N124A; conditions: mean ± S.E.M., three independent experiments (n=3), SEM, read-out: IP1 accumulation pEC50 ± S.E.M. (converted)
T6 construct: The full-length human NMUR1 and NMUR2 were modified; expressed in transfected cells; host or cells: AD293 cells
T6 sequence (Q9HB89 whole entry N124A): as the sequence (Q9HB89 whole entry F345A) above, with N124A, A345F counted along it
Protocol: as §1, §2

NMUR2 A302G = biological target: T7, NMUR2 A302G (Homo sapiens, UniProt Q9GZQ4, A302G); test: IP-One assay, NMUR2 A302G; conditions: mean ± S.E.M., three independent experiments (n=3), SEM, read-out: IP1 accumulation pEC50 ± S.E.M. (converted)
T7 construct: expressed in transfected cells; host or cells: AD293 cells
T7 sequence (Q9GZQ4 whole entry A302G): as the sequence (Q9GZQ4 whole entry) above, with A302G counted along it
Protocol: as §1, §2

NMUR1 H331A = biological target: T8, NMUR1 H331A (Homo sapiens, UniProt Q9HB89, H331A); test: IP-One assay, NMUR1 H331A; conditions: mean ± S.E.M., three independent experiments (n=3), SEM, read-out: IP1 accumulation pEC50 ± S.E.M. (converted)
T8 construct: The full-length human NMUR1 and NMUR2 were modified; expressed in transfected cells; host or cells: AD293 cells
T8 sequence (Q9HB89 whole entry H331A): as the sequence (Q9HB89 whole entry F345A) above, with H331A, A345F counted along it
Protocol: as §1, §2

NMUR2 K122A = biological target: T9, NMUR2 K122A (Homo sapiens, UniProt Q9GZQ4, K122A); test: IP-One assay, NMUR2 K122A; conditions: mean ± S.E.M., three independent experiments (n=3), SEM, read-out: IP1 accumulation pEC50 ± S.E.M. (converted)
T9 construct: expressed in transfected cells; host or cells: AD293 cells
T9 sequence (Q9GZQ4 whole entry K122A): as the sequence (Q9GZQ4 whole entry) above, with K122A counted along it
Protocol: as §1, §2

NMUR1 F313A = biological target: T10, NMUR1 F313A (Homo sapiens, UniProt Q9HB89, F313A); test: IP-One assay, NMUR1 F313A; conditions: mean ± S.E.M., three independent experiments (n=3), SEM, read-out: IP1 accumulation pEC50 ± S.E.M. (converted)
T10 construct: The full-length human NMUR1 and NMUR2 were modified; expressed in transfected cells; host or cells: AD293 cells
T10 sequence (Q9HB89 whole entry F313A): as the sequence (Q9HB89 whole entry F345A) above, with F313A, A345F counted along it
Protocol: as §1, §2

NMUR2 N181A = biological target: T11, NMUR2 N181A (Homo sapiens, UniProt Q9GZQ4, N181A); test: IP-One assay, NMUR2 N181A; conditions: mean ± S.E.M., three independent experiments (n=3), SEM, read-out: IP1 accumulation pEC50 ± S.E.M. (converted)
T11 construct: expressed in transfected cells; host or cells: AD293 cells
T11 sequence (Q9GZQ4 whole entry N181A): as the sequence (Q9GZQ4 whole entry) above, with N181A counted along it
Protocol: as §1, §2

NMUR2 N306A = biological target: T12, NMUR2 N306A (Homo sapiens, UniProt Q9GZQ4, N306A); test: IP-One assay, NMUR2 N306A; conditions: mean ± S.E.M., three independent experiments (n=3), SEM, read-out: IP1 accumulation pEC50 ± S.E.M. (converted)
T12 construct: expressed in transfected cells; host or cells: AD293 cells
T12 sequence (Q9GZQ4 whole entry N306A): as the sequence (Q9GZQ4 whole entry) above, with N306A counted along it
Protocol: as §1, §2

NMUR2 Y213A = biological target: T13, NMUR2 Y213A (Homo sapiens, UniProt Q9GZQ4, Y213A); test: IP-One assay, NMUR2 Y213A; conditions: mean ± S.E.M., three independent experiments (n=3), SEM, read-out: IP1 accumulation pEC50 ± S.E.M. (converted)
T13 construct: expressed in transfected cells; host or cells: AD293 cells
T13 sequence (Q9GZQ4 whole entry Y213A): as the sequence (Q9GZQ4 whole entry) above, with Y213A counted along it
Protocol: as §1, §2

NMUR1 M121A = biological target: T14, NMUR1 M121A (Homo sapiens, UniProt Q9HB89, M121A); test: IP-One assay, NMUR1 M121A; conditions: mean ± S.E.M., three independent experiments (n=3), SEM, read-out: IP1 accumulation pEC50 ± S.E.M. (converted)
T14 construct: The full-length human NMUR1 and NMUR2 were modified; expressed in transfected cells; host or cells: AD293 cells
T14 sequence (Q9HB89 whole entry M121A): as the sequence (Q9HB89 whole entry F345A) above, with M121A, A345F counted along it
Protocol: as §1, §2

NMUR1 H338A = biological target: T15, NMUR1 H338A (Homo sapiens, UniProt Q9HB89, H338A); test: IP-One assay, NMUR1 H338A; conditions: mean ± S.E.M., three independent experiments (n=3), SEM, read-out: IP1 accumulation pEC50 ± S.E.M. (converted)
T15 construct: The full-length human NMUR1 and NMUR2 were modified; expressed in transfected cells; host or cells: AD293 cells
T15 sequence (Q9HB89 whole entry H338A): as the sequence (Q9HB89 whole entry F345A) above, with H338A, A345F counted along it
Protocol: as §1, §2

NMUR2 T205A = biological target: T16, NMUR2 T205A (Homo sapiens, UniProt Q9GZQ4, T205A); test: IP-One assay, NMUR2 T205A; conditions: mean ± S.E.M., three independent experiments (n=3), SEM, read-out: IP1 accumulation pEC50 ± S.E.M. (converted)
T16 construct: expressed in transfected cells; host or cells: AD293 cells
T16 sequence (Q9GZQ4 whole entry T205A): as the sequence (Q9GZQ4 whole entry) above, with T205A counted along it
Protocol: as §1, §2

NMUR1 E117A = biological target: T17, NMUR1 E117A (Homo sapiens, UniProt Q9HB89, E117A); test: IP-One assay, NMUR1 E117A; conditions: mean ± S.E.M., three independent experiments (n=3), SEM, read-out: IP1 accumulation pEC50 ± S.E.M. (converted)
T17 construct: The full-length human NMUR1 and NMUR2 were modified; expressed in transfected cells; host or cells: AD293 cells
T17 sequence (Q9HB89 whole entry E117A): as the sequence (Q9HB89 whole entry F345A) above, with E117A, A345F counted along it
Protocol: as §1, §2

NMUR1 WT = biological target: T18, NMUR1 WT (Homo sapiens, UniProt Q9HB89); test: IP-One assay, NMUR1 WT
T18 construct: The full-length human NMUR1 and NMUR2 were modified; expressed in transfected cells; host or cells: AD293 cells
T18 sequence (Q9HB89 whole entry): as the sequence (Q9HB89 whole entry F345A) above, with A345F counted along it
Protocol: as §1, §2

NMUR1 H200A = biological target: T19, NMUR1 H200A (Homo sapiens, UniProt Q9HB89, H200A); test: IP-One assay, NMUR1 H200A; conditions: mean ± S.E.M., three independent experiments (n=3), SEM, read-out: IP1 accumulation pEC50 ± S.E.M. (converted)
T19 construct: The full-length human NMUR1 and NMUR2 were modified; expressed in transfected cells; host or cells: AD293 cells
T19 sequence (Q9HB89 whole entry H200A): as the sequence (Q9HB89 whole entry F345A) above, with H200A, A345F counted along it
Protocol: as §1, §2

NMUR2 R288A = biological target: T20, NMUR2 R288A (Homo sapiens, UniProt Q9GZQ4, R288A); test: IP-One assay, NMUR2 R288A; conditions: mean ± S.E.M., three independent experiments (n=3), SEM, read-out: IP1 accumulation pEC50 ± S.E.M. (converted)
T20 construct: expressed in transfected cells; host or cells: AD293 cells
T20 sequence (Q9GZQ4 whole entry R288A): as the sequence (Q9GZQ4 whole entry) above, with R288A counted along it
Protocol: as §1, §2

NMUR2 T123A = biological target: T21, NMUR2 T123A (Homo sapiens, UniProt Q9GZQ4, T123A); test: IP-One assay, NMUR2 T123A; conditions: mean ± S.E.M., three independent experiments (n=3), SEM, read-out: IP1 accumulation pEC50 ± S.E.M. (converted)
T21 construct: expressed in transfected cells; host or cells: AD293 cells
T21 sequence (Q9GZQ4 whole entry T123A): as the sequence (Q9GZQ4 whole entry) above, with T123A counted along it
Protocol: as §1, §2

NMUR2 E102A = biological target: T22, NMUR2 E102A (Homo sapiens, UniProt Q9GZQ4, E102A); test: IP-One assay, NMUR2 E102A; conditions: mean ± S.E.M., three independent experiments (n=3), SEM, read-out: IP1 accumulation pEC50 ± S.E.M. (converted)
T22 construct: expressed in transfected cells; host or cells: AD293 cells
T22 sequence (Q9GZQ4 whole entry E102A): as the sequence (Q9GZQ4 whole entry) above, with E102A counted along it
Protocol: as §1, §2

NMUR1 Y346A = biological target: T23, NMUR1 Y346A (Homo sapiens, UniProt Q9HB89, Y346A); test: IP-One assay, NMUR1 Y346A; conditions: mean ± S.E.M., three independent experiments (n=3), SEM, read-out: IP1 accumulation pEC50 ± S.E.M. (converted)
T23 construct: The full-length human NMUR1 and NMUR2 were modified; expressed in transfected cells; host or cells: AD293 cells
T23 sequence (Q9HB89 whole entry Y346A): as the sequence (Q9HB89 whole entry F345A) above, with A345F, Y346A counted along it
Protocol: as §1, §2

NMUR1 E120A = biological target: T24, NMUR1 E120A (Homo sapiens, UniProt Q9HB89, E120A); test: IP-One assay, NMUR1 E120A; conditions: mean ± S.E.M., three independent experiments (n=3), SEM, read-out: IP1 accumulation pEC50 ± S.E.M. (converted)
T24 construct: The full-length human NMUR1 and NMUR2 were modified; expressed in transfected cells; host or cells: AD293 cells
T24 sequence (Q9HB89 whole entry E120A): as the sequence (Q9HB89 whole entry F345A) above, with E120A, A345F counted along it
Protocol: as §1, §2

NMUR1 F141A = biological target: T25, NMUR1 F141A (Homo sapiens, UniProt Q9HB89, F141A); test: IP-One assay, NMUR1 F141A; conditions: mean ± S.E.M., three independent experiments (n=3), SEM, read-out: IP1 accumulation pEC50 ± S.E.M. (converted)
T25 construct: The full-length human NMUR1 and NMUR2 were modified; expressed in transfected cells; host or cells: AD293 cells
T25 sequence (Q9HB89 whole entry F141A): as the sequence (Q9HB89 whole entry F345A) above, with F141A, A345F counted along it
Protocol: as §1, §2

For “FRVDEEFQSPFASQSRGYFLFRPRN-NH2 [NMU, neuromedin U]”, the EC50 (NMUR2 WT) was 0.00302 µM, the EC50 (NMUR2 E127A) was 0.0437 µM and the EC50 (NMUR1 F345A) was 1.48 µM. The EC50 (NMUR2 N109A) was 0.00724 µM, the EC50 (NMUR1 Q335A) was 0.0182 µM and the EC50 (NMUR1 N124A) was 0.00692 µM. For the same substance, the EC50 (NMUR2 A302G) was 0.0708 µM, the EC50 (NMUR1 H331A) was 0.0115 µM and the EC50 (NMUR2 K122A) was 0.0617 µM. The EC50 (NMUR1 F313A) was 0.209 µM, the EC50 (NMUR2 N181A) was 0.00275 µM and the EC50 (NMUR2 N306A) was 0.01 µM. It also gave an EC50 (NMUR2 Y213A) of 0.00724 µM, an EC50 (NMUR1 M121A) of 0.0513 µM and an EC50 (NMUR1 H338A) of 0.0295 µM. It also gave an EC50 (NMUR2 T205A) of 0.00195 µM, an EC50 (NMUR1 E117A) of 1.07 µM and an EC50 (NMUR1 WT; NMUR1 WT, mean ± S.E.M., three independent experiments (n=3), SEM, read-out: IP1 accumulation pEC50 ± S.E.M. (converted)) of 0.00355 µM. The EC50 (NMUR1 WT; wild-type (WT) NMUR1, Supplementary Fig. 1, three independent experiments, read-out: pEC50 of NMU (converted)) was 0.00447 µM, the EC50 (NMUR1 H200A) was 0.0417 µM and the EC50 (NMUR2 R288A) was 0.0331 µM. For the same substance, the EC50 (NMUR2 T123A) was 0.00977 µM, the EC50 (NMUR2 E102A) was 0.0309 µM and the EC50 (NMUR1 Y346A) was 0.155 µM. It also gave an EC50 (NMUR1 E120A) of 0.0107 µM and an EC50 (NMUR1 F141A) of 0.115 µM.
